Patent publication US20250236608A1, “EGFR INHIBITORS” (Blueprint Medicines Corporation, priority 2022, published 2025)

Assays:
[1] = molecular target: EGFR L858R (Homo sapiens (Human), UniProt P00533, L858R); test: Biochemical EGFR inhibition assay, EGFR L858R; conditions: Caliper mobility shift; 1.0 mM ATP or ATP Km; read-out: Enz EGFR_L858R IC50
Method: (§1) Reactions proceeded until between 10% to 20% total peptides were phosphorylated at room temperature (25° C.) and were terminated with 35 mM 2,2′,2″,2″-(ethane-1,2-diyldinitrilo)tetraacetic acid (EDTA). Product was detected using the Caliper mobility shift detection method where the phosphorylated peptide (product) and substrate were electrophoretically separated and measured. Percent activity was plotted against log concentration of compound and points to generate an apparent IC50.

[2] = molecular target: EGFR (d746-750) (Homo sapiens (Human), UniProt P00533, DEL746-750); test: Biochemical EGFR inhibition assay, EGFR (d746-750); conditions: Caliper mobility shift; 1.0 mM ATP or ATP Km; read-out: Enz EGFR_Exon19-del746-750 IC50
Sequence of EGFR (d746-750) (P00533 other isoform, or with tags, fused parts or gaps del 1-694/del 746-750 limits assumed): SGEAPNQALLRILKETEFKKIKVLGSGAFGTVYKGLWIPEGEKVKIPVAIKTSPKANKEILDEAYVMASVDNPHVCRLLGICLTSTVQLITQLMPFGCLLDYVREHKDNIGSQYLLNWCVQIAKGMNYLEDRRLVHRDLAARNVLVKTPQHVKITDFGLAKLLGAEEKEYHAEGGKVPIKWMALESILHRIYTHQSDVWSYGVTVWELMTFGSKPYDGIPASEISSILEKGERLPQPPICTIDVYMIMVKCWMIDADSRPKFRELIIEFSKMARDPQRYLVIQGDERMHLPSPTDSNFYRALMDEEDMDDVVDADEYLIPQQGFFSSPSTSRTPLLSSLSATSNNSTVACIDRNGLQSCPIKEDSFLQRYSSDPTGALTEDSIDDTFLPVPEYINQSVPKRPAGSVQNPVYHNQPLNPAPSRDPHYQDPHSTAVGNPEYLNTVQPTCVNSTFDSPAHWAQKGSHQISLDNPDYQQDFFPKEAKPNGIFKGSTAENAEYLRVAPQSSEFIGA
Method: as §1

[3] = molecular target: pEGFR (Tyr1068) in PC-9 cells (Ex19Del) (Homo sapiens (Human), UniProt P00533, DEL746-750); test: PC-9 pEGFR AlphaLISA assay; type: cell-based; conditions: 4 hours incubation, p-EGFR (Tyr1068) AlphaLISA, read-out: Ext pEGFR_PC-9 Ex19Del IC50
Sequence of pEGFR (Tyr1068) in PC-9 cells (Ex19Del) (P00533 other isoform, or with tags, fused parts or gaps del 746-750): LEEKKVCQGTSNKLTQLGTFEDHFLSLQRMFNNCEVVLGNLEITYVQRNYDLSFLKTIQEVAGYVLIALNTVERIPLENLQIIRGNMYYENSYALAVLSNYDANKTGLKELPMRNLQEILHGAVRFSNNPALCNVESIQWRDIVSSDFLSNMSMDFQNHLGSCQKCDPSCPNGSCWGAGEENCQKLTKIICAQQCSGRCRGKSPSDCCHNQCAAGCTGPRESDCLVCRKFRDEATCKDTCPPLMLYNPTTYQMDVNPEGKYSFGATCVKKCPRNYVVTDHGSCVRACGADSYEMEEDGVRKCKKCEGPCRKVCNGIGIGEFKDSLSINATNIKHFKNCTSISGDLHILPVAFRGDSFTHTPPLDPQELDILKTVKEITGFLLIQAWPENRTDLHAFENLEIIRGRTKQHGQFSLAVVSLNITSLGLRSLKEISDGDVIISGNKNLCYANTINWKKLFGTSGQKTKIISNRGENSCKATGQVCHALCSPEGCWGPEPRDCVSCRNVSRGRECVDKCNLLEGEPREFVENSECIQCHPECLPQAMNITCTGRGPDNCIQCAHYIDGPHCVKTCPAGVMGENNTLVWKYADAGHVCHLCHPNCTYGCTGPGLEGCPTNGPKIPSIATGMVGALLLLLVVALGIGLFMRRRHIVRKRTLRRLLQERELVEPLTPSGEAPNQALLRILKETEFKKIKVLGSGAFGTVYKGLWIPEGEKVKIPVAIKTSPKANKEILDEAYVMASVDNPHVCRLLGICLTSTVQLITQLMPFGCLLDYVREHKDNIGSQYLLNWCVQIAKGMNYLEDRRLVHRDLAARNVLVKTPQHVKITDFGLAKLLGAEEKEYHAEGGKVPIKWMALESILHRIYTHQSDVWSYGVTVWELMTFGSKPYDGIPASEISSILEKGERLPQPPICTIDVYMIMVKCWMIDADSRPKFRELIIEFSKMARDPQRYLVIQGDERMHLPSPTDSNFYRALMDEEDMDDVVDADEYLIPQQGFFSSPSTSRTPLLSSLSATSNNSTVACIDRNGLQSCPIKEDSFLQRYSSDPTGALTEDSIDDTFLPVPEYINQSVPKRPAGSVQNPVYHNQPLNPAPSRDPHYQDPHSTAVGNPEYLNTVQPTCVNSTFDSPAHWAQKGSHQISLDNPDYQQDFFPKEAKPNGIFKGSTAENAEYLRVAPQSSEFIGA
Method: PC-9/A431 pEGFR AlphaLISA Assays
Inhibitory effects of compounds were evaluated in cellular assays that measure level of intracellular phosphorylation of EGFR in PC-9 (ECACC, #90071810, Milipore/Sigma) and A431 cell lines (ATCC, CRL-1555) using AlphaLISA sureFire ultra p-EGFR (Tyr1068) assay kit (PerkinElmer, ALSU-PEGFR-A50K). PC-9 cells were seeded at 3.125×10^5 cells/ml in 40 μL phenol-free DMEM supplemented with 10% FBS per well of a 384 well plate (Corning, 3764), while A431 were seeded at 3.125×10^5 cells/ml in 40 μL in phenol-free DMEM with 0.5% FBS. Cells were allowed to adhere overnight at 37° C./5% CO2. On the next day, compounds were transferred at 4-fold, 10-point serial dilution from compound source plate to cell plates using liquid handler Echo550 and were incubated at 37° C./5% CO2 for 4 hours. A431 cells were stimulated prior harvesting for 10 min with EGF at final concentration of 30 ng/ml in the incubator. Medium was removed from the plates and cells were lysed with 10 μL of 1× AlphaLISA lysis buffer (supplemented with 1× protease/phosphatase inhibitor cocktail) followed by shaking at 600 rpm for 30 minutes at room temperature. Lysates were transferred to Optiplate (Apricot designs) and 5 μl of 1× acceptor bead mix (prepared just before use) was added to each well followed by incubation at room temperature for 1.5-2 h in dark. Then 5 μL of freshly-made donor bead mix is added to each well under subdued lighting or green filters, was mixed well on the shaker and the plate was sealed and left for an overnight incubation at room temperature in dark. On the next day, the plate was read the Envision using standard AlphaLisa settings. Percent of pEGFR inhibition was plotted against log concentration of compounds to generate IC50 values.

Sequence of EGFR L858R (P00533 25-1210 L858R): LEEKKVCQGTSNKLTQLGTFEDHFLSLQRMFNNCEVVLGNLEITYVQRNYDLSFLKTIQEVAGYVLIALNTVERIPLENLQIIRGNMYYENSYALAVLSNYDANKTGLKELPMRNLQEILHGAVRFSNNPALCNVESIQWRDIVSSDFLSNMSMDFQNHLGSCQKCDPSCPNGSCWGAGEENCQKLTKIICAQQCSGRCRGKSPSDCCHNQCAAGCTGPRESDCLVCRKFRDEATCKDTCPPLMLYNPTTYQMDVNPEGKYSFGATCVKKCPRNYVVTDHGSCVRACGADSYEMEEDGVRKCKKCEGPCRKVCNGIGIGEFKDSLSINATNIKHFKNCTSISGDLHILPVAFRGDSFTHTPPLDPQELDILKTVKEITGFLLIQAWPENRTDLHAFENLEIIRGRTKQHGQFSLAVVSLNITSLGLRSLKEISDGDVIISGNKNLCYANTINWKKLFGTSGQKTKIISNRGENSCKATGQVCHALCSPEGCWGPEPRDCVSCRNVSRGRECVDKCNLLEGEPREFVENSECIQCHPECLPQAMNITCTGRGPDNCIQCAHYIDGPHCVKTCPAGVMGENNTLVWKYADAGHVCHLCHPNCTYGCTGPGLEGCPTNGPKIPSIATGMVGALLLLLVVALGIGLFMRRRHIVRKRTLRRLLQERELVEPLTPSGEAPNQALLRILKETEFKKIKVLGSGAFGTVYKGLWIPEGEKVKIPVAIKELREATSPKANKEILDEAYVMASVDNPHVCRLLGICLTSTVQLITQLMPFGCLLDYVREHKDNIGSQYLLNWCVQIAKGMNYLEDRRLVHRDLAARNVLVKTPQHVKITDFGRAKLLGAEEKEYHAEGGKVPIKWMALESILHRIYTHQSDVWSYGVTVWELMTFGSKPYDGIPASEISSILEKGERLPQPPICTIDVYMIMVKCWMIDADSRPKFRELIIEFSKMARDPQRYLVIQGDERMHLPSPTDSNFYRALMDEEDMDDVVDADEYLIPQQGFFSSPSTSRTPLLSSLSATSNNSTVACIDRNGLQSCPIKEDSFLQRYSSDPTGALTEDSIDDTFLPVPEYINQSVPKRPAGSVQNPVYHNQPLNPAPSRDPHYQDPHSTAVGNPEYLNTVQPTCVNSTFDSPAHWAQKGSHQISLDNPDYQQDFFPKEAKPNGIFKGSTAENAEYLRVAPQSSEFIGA

Structure (SMILES) | IC50 [1] | IC50 [2] | IC50 [3]
CCC(=O)Nc1cc2c(-c3cn(C)nc3-c3ccccc3)ncnc2cc1-c1ncccn1 [Example 449, N-(4-(1-methyl-3-phenyl-1H-pyrazol-4-yl)-7-(pyrimidin-2-yl)quinazolin-6-yl)propionamide] | 1.3 nM | 0.9 nM | 1.9 nM
COc1cc2ncnc(-c3cn(C)nc3-c3ccccc3)c2cc1OC(=O)N1CCN(C)C[C@@H]1C (stereo in doubt) [Example 59, 7-methoxy-4-(1-methyl-3-phenyl-1H-pyrazol-4-yl)quinazolin-6-yl(S)-2,4-dimethylpiperazine-1-carboxylate or 7-methoxy-4-(1-methyl-3-phenyl-1H-pyrazol-4-yl)quinazolin-6-yl (R)-2,4-dimethylpiperazine-1-carboxylate] | 3.3 nM | 2 nM | 4.2 nM
COc1cc2ncnc(-c3cn(C)nc3-c3ccccc3)c2cc1OC(=O)N1C[C@@H](C)OC[C@@H]1C (racemic) [Example 91, trans-rac-7-methoxy-4-(1-methyl-3-phenyl-1H-pyrazol-4-yl)quinazolin-6-yl (2R,5S)-2,5-dimethylmorpholine-4-carboxylate or cis-rac-7-methoxy-4-(1-methyl-3-phenyl-1H-pyrazol-4-yl)quinazolin-6-yl (2S,5S)-2,5-dimethylmorpholine-4-carboxylate] | 9.3 nM | 5.6 nM | 9.5 nM
COc1cc2ncnc(-c3cn(C)nc3-c3ccccc3)c2cc1NC(=O)N1CCN(C)[C@@H](C)[C@H]1C (single isomer, unassigned) [Example 180, (2R,3S)—N-(7-methoxy-4-(1-methyl-3-phenyl-1H-pyrazol-4-yl)quinazolin-6-yl)-2,3,4-trimethylpiperazine-1-carboxamide or (2S,3R)—N-(7-methoxy-4-(1-methyl-3-phenyl-1H-pyrazol-4-yl)quinazolin-6-yl)-2,3,4-trimethylpiperazine-1-carboxamide] | 3.8 nM | 2.2 nM | 4 nM
CCC(=O)Nc1cc2c(-c3cn(C)nc3-c3c(F)cccc3F)ncnc2cc1-c1ccn(C)n1 [Example 453, N-(4-(3-(2,6-difluorophenyl)-1-methyl-1H-pyrazol-4-yl)-7-(1-methyl-1H-pyrazol-3-yl)quinazolin-6-yl)propionamide] | 1.3 nM | 0.7 nM | 0.4 nM
COc1cc2ncnc(-c3cn(C)nc3-c3ccccc3)c2cc1OC1CCOC1 (stereo not drawn) [Example 11, 7-methoxy-4-(1-methyl-3-phenyl-1H-pyrazol-4-yl)-6-((tetrahydrofuran-3-yl)oxy)quinazoline] | 2.9 nM | 2.4 nM | 5.1 nM
COc1cc2ncnc(-c3cn(C4CC4)nc3-c3ccccc3)c2nc1NC(=O)c1cnn(C(F)(F)F)c1 [Example 365, N-(4-(1-cyclopropyl-3-phenyl-1H-pyrazol-4-yl)-7-methoxypyrido[3,2-d]pyrimidin-6-y1)-1-(trifluoromethyl)-1H-pyrazole-4-carboxamide] | 1.8 nM | 0.9 nM | 2 nM

More lines, in order of falling IC50 [1], values ahead:

IC50 [1] | IC50 [2] | IC50 [3] | Structure (SMILES)
6.2 nM | 3.3 nM | 5.4 nM | COc1cc2ncnc(-c3cn(C)nc3-c3ccccc3)c2cc1NC(=O)N1C[C@H](C)N(C)C[C@@H]1C [Example 178, (2S,5S)—N-(7-methoxy-4-(1-methyl-3-phenyl-1H-pyrazol-4-yl)quinazolin-6-yl)-2,4,5-trimethylpiperazine-1-carboxamide]
2.1 nM | 1.3 nM | 1.4 nM | COc1cc2ncnc(-c3cn(C)nc3-c3ccccc3)c2cc1NC(=O)c1ccnn1C(F)(F)F [Example 204, N-(7-methoxy-4-(1-methyl-3-phenyl-1H-pyrazol-4-yl)quinazolin-6-yl)-1-(trifluoromethyl)-1H-pyrazole-5-carboxamide]
0.5 nM | 0.4 nM | 0.5 nM | Cn1cc(-c2ccc3c(-c4c[nH]nc4-c4cc(F)ccc4F)ncnc3c2)cn1 [Example 444, 4-(3-(2,5-difluorophenyl)-1H-pyrazol-4-yl)-7-(1-methyl-1H-pyrazol-4-yl)quinazoline]
